Measured values reported in PubChem BioAssay AID1963441 (Molecular Pharmacology Branch, DTP, NCI, 2024).

Test system: NCI-H1876 complex spheroid growth, % test/control
Test: Anticancer human tumor NCI-H1876 cell line growth inhibition [Asc];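 note: compound exposure lasted 7 days starting three days after seeding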;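 for viability, T/C: 100% = DMSO vehicle control wells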
Details: for IC50: curve of first compound; for viability, T/C: stronger effect = lower value
Summary of the method: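 Complex solid-tumor spheroids incorporating human endothelial and mesenchymal stem cells received single agents or combinations over half-log dilution ranges anchored to clinical Cmax.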

NC(=O)C(=Cn1cnc(-c2cc(C(F)(F)F)cc(C(F)(F)F)c2)n1)c1cncnc1 + Cc1c(S(C)(=O)=O)c(-c2cc(F)cc(N3CCN(c4ccc(NS(=O)(=O)c5ccc(NC(CCN6CCC(C(=O)OCCCP(=O)(O)O)CC6)CSc6ccccc6)c(S(=O)(=O)C(F)(F)F)c5)cc4)CC3)c2)c(-c2ccc(Cl)cc2)n1C(C)C
IC50 (second compound 0.0316 µM): > 300 nM
IC50 (second compound 0.1 µM): > 300 nM
IC50 (second compound 0.316 µM): 273 nM
IC50 (second compound 1 µM): 223 nM
IC50 (second compound 3.16 µM): 163 nM
IC50 (second compound 10 µM): 149 nM
viability, T/C (second compound 0.0316 µM, first compound 0.000949 µM): 105%
viability, T/C (second compound 0.0316 µM, first compound 0.003 µM): 102%
viability, T/C (second compound 0.0316 µM, first compound 0.00949 µM): 94.4%
viability, T/C (second compound 0.0316 µM, first compound 0.03 µM): 97.8%
viability, T/C (second compound 0.0316 µM, first compound 0.0949 µM): 105%
viability, T/C (second compound 0.0316 µM, first compound 0.3 µM): 55.1%
viability, T/C (second compound 0.1 µM, first compound 0.000949 µM): 99.3%
viability, T/C (second compound 0.1 µM, first compound 0.003 µM): 112%
viability, T/C (second compound 0.1 µM, first compound 0.00949 µM): 113%
viability, T/C (second compound 0.1 µM, first compound 0.03 µM): 106%
viability, T/C (second compound 0.1 µM, first compound 0.0949 µM): 101%
viability, T/C (second compound 0.1 µM, first compound 0.3 µM): 52.5%
viability, T/C (second compound 0.316 µM, first compound 0.000949 µM): 102%
viability, T/C (second compound 0.316 µM, first compound 0.003 µM): 107%
viability, T/C (second compound 0.316 µM, first compound 0.00949 µM): 91.3%
viability, T/C (second compound 0.316 µM, first compound 0.03 µM): 97.1%
viability, T/C (second compound 0.316 µM, first compound 0.0949 µM): 96.3%
viability, T/C (second compound 0.316 µM, first compound 0.3 µM): 45.8%
viability, T/C (second compound 1 µM, first compound 0.000949 µM): 99.6%
viability, T/C (second compound 1 µM, first compound 0.003 µM): 96.9%
viability, T/C (second compound 1 µM, first compound 0.00949 µM): 89.7%
viability, T/C (second compound 1 µM, first compound 0.03 µM): 96%
viability, T/C (second compound 1 µM, first compound 0.0949 µM): 88.7%
viability, T/C (second compound 1 µM, first compound 0.3 µM): 36.6%
viability, T/C (second compound 3.16 µM, first compound 0.000949 µM): 101%
viability, T/C (second compound 3.16 µM, first compound 0.003 µM): 92.5%
viability, T/C (second compound 3.16 µM, first compound 0.00949 µM): 95.5%
viability, T/C (second compound 3.16 µM, first compound 0.03 µM): 92.9%
viability, T/C (second compound 3.16 µM, first compound 0.0949 µM): 69.4%
viability, T/C (second compound 3.16 µM, first compound 0.3 µM): 27.9%
viability, T/C (second compound 10 µM, first compound 0.000949 µM): 109%
viability, T/C (second compound 10 µM, first compound 0.003 µM): 99.9%
viability, T/C (second compound 10 µM, first compound 0.00949 µM): 90%
viability, T/C (second compound 10 µM, first compound 0.03 µM): 92.5%
viability, T/C (second compound 10 µM, first compound 0.0949 µM): 66.9%
viability, T/C (second compound 10 µM, first compound 0.3 µM): 23.1%

NC1CCC(NC2CC2c2ccccc2)CC1 (centres undefined) + Cc1c(S(C)(=O)=O)c(-c2cc(F)cc(N3CCN(c4ccc(NS(=O)(=O)c5ccc(NC(CCN6CCC(C(=O)OCCCP(=O)(O)O)CC6)CSc6ccccc6)c(S(=O)(=O)C(F)(F)F)c5)cc4)CC3)c2)c(-c2ccc(Cl)cc2)n1C(C)C
IC50 (second compound 0.0316 µM): > 100 nM
IC50 (second compound 0.1 µM): > 100 nM
IC50 (second compound 0.316 µM): > 100 nM
IC50 (second compound 1 µM): > 100 nM
IC50 (second compound 3.16 µM): > 100 nM
IC50 (second compound 10 µM): > 100 nM
viability, T/C (second compound 0.0316 µM, first compound 0.000316 µM): 111%
viability, T/C (second compound 0.0316 µM, first compound 0.001 µM): 101%
viability, T/C (second compound 0.0316 µM, first compound 0.00316 µM): 99.3%
viability, T/C (second compound 0.0316 µM, first compound 0.01 µM): 106%
viability, T/C (second compound 0.0316 µM, first compound 0.0316 µM): 109%
viability, T/C (second compound 0.0316 µM, first compound 0.1 µM): 119%
viability, T/C (second compound 0.1 µM, first compound 0.000316 µM): 114%
viability, T/C (second compound 0.1 µM, first compound 0.001 µM): 103%
viability, T/C (second compound 0.1 µM, first compound 0.00316 µM): 105%
viability, T/C (second compound 0.1 µM, first compound 0.01 µM): 110%
viability, T/C (second compound 0.1 µM, first compound 0.0316 µM): 103%
viability, T/C (second compound 0.1 µM, first compound 0.1 µM): 112%
viability, T/C (second compound 0.316 µM, first compound 0.000316 µM): 99.6%
viability, T/C (second compound 0.316 µM, first compound 0.001 µM): 103%
viability, T/C (second compound 0.316 µM, first compound 0.00316 µM): 113%
viability, T/C (second compound 0.316 µM, first compound 0.01 µM): 101%
viability, T/C (second compound 0.316 µM, first compound 0.0316 µM): 120%
viability, T/C (second compound 0.316 µM, first compound 0.1 µM): 106%
viability, T/C (second compound 1 µM, first compound 0.000316 µM): 97.5%
viability, T/C (second compound 1 µM, first compound 0.001 µM): 97.7%
viability, T/C (second compound 1 µM, first compound 0.00316 µM): 93.1%
viability, T/C (second compound 1 µM, first compound 0.01 µM): 93.9%
viability, T/C (second compound 1 µM, first compound 0.0316 µM): 109%
viability, T/C (second compound 1 µM, first compound 0.1 µM): 114%
viability, T/C (second compound 3.16 µM, first compound 0.000316 µM): 103%
viability, T/C (second compound 3.16 µM, first compound 0.001 µM): 112%
viability, T/C (second compound 3.16 µM, first compound 0.00316 µM): 98.2%
viability, T/C (second compound 3.16 µM, first compound 0.01 µM): 104%
viability, T/C (second compound 3.16 µM, first compound 0.0316 µM): 110%
viability, T/C (second compound 3.16 µM, first compound 0.1 µM): 98.9%
viability, T/C (second compound 10 µM, first compound 0.000316 µM): 118%
viability, T/C (second compound 10 µM, first compound 0.001 µM): 105%
viability, T/C (second compound 10 µM, first compound 0.00316 µM): 101%
viability, T/C (second compound 10 µM, first compound 0.01 µM): 103%
viability, T/C (second compound 10 µM, first compound 0.0316 µM): 111%
viability, T/C (second compound 10 µM, first compound 0.1 µM): 108%
